From US20060069132A1, “Azolecarboxamide herbicides” (priority 2004, published 2006)

Experiments:
[1] = test system: purple redstem; test: Test D flooded paddy test; format: in vivo, Ammannia coccinea; conditions: 21 days, scale 0 to 100
Excerpt: (§1) Three plastic pots (ca. 16-cm diameter) per rate were partially filled with sterilized Tama silt loam soil comprising a 35:50:15 ratio of sand, silt and clay and 2.6% organic matter. Separate plantings for each of the three pots were as follows. Seeds from the U.S. of ducksalad (Heteranthera limosa (Sw.) Willd.), smallflower umbrella sedge (Cyperus difformis L.) and purple redstem (Ammannia coccinea Rottb.), were planted into one 16-cm pot for each rate. Seeds from the U.S. of rice flatsedge (Cyperus iria L.), bearded sprangletop (Leptochloa fascicularis (Lam.) Gray), one stand of 9 or 10 water seeded rice seedlings (Oryza sativa L. cv. ‘Japonica—M202’), and one stand of 6 transplanted rice seedlings (Oryza sativa L. cv. ‘Japonica—M202’) were planted into one 16-cm pot for each rate. Seeds from the U.S. of barnyardgrass (Echinochloa crus-galli (L.) Beauv.), late watergrass (Echinochloa oryzicola Vasinger), early watergrass (Echinochloa oryzoides (Ard.) Fritsch) and junglerice (Echinochloa colona (L.) Link) were planted into one 16-cm pot for each rate. Plantings were sequential so that crop and weed species were at the 2.0 to 2.5-leaf stage at time of treatment.
(§2) Potted plants were grown in a greenhouse with day/night temperature settings of 29.5/26.7° C., and supplemental balanced lighting was provided to maintain a 16-hour photoperiod. Test pots were maintained in the greenhouse until test completion.
(§3) At time of treatment, test pots were flooded to 3 cm above the soil surface, treated by application of test compounds directly to the paddy water, and then maintained at that water depth for the duration of the test. Effects of treatments on rice and weeds were visually evaluated by comparison to untreated controls after 21 days. Plant response ratings are reported on a 0 to 100 scale; where 0 is no effect and 100 is complete control. A dash (-) response means no test result.

[2] = test system: smallflower umbrella sedge; test: Test D flooded paddy test; format: in vivo, Cyperus difformis; conditions: 21 days, scale 0 to 100
Excerpt: as §1, §2, §3

[3] = test system: transplanted rice seedlings; test: Test D flooded paddy test; format: in vivo, Oryza sativa; conditions: 21 days, scale 0 to 100
Excerpt: as §1, §2, §3

[4] = test system: water seeded rice seedlings; test: Test D flooded paddy test; format: in vivo, Oryza sativa; conditions: 21 days, scale 0 to 100
Excerpt: as §1, §2, §3

[5] = test system: bearded sprangletop; test: Test D flooded paddy test; format: in vivo, Leptochloa fascicularis; conditions: 21 days, scale 0 to 100
Excerpt: as §1, §2, §3

[6] = test system: barnyardgrass; test: Test D flooded paddy test; format: in vivo, Echinochloa crus-galli; conditions: 21 days, scale 0 to 100
Excerpt: as §1, §2, §3

[7] = test system: rice flatsedge; test: Test D flooded paddy test; format: in vivo, Cyperus iria; conditions: 21 days, scale 0 to 100
Excerpt: as §1, §2, §3

[8] = test system: early watergrass; test: Test D flooded paddy test; format: in vivo, Echinochloa oryzoides; conditions: 21 days, scale 0 to 100
Excerpt: as §1, §2, §3

[9] = test system: ducksalad; test: Test D flooded paddy test; format: in vivo, Heteranthera limosa; conditions: 21 days, scale 0 to 100
Excerpt: as §1, §2, §3

[10] = test system: hairy beggarticks; test: Test E pre-/postemergence herbicide test; format: in vivo, Bidens radiata; conditions: Preemergence
Excerpt: Seeds of plant species selected from bipinnate beggarticks (Bidens bipinnata L.), hairy beggarticks (Bidens radiata Thuill.), bermudagrass (Cynodon dactylon (L.) Pers.), Surinam grass (Urochloa decumbens (Staph) R. D. Webster, previously named Brachiaria decumbens Stapf), large crabgrass (Digitaria sanguinalis (L.) Scop.), green foxtail (Setaria viridis (L.) P. Beauv.), goosegrass (Eleusine indica (L.) Gaertn.), johnsongrass (Sorghum halepense (L.) Pers.), kochia (Kochia scoparia (L.) Schrad.), pitted morningglory (Ipomoea lacunosa L.), purple nutsedge (Cyperus rotundus L.), common ragweed (Ambrosia elatior L.), mustard (Brassica nigra (L.) W. D. J. Koch), guineagrass (Panicum maximum Jacq.), dallisgrass (Paspalum dilatatum Poir.), barnyardgrass (Echinochloa crus-galli (L). P. Beauv.), southern sandbur (Cenchrus echinatus L.), common sowthistle (Sonchus oleraceous L.), prickly sida (Sida spinosa L.), Italian ryegrass (Lolium multiflorum Lam.), common purslane (Portulaca oleracea L.), broadleaf signalgrass (Brachiaria platyphylla (Griseb.) Nash), common groundsel (Senecio vulgaris L.), common chickweed (Stellaria media (L.) Vill/Cyr.), tropical spiderwort (Commelina benghalensis L.), annual bluegrass (Poa annua L.), downy bromegrass (Bromus tectorum L.), itchgrass (Rottboellia cochinchinensis (L.) L.f.), quackgrass (Elytrigia repens (L.) Nevski), Canada horseweed (Erigeron Canadensis L.), field bindweed (Convolvulus arvensis L.), spotted spurge (Euphorbia maculata L.), common mallow (Malva sylvestris (=s silvestris) L.), and Russian thistle (Salsola kali L. ssp. Ruthenica (Iljin) Soo) were planted and treated preemergence with test chemicals formulated in a non-phytotoxic solvent mixture which included a surfactant.
At the same time, plants selected from these weed species were treated with postemergence applications of some of the test chemicals formulated in the same manner. Plants ranged in height from 2 to 18 cm (1- to 4-leaf stage) for postemergence treatments. Treated plants and controls were maintained in a greenhouse for 12 to 14 days, after which time all species were compared to controls and visually evaluated. Plant response ratings, summarized in Table E, are based on a scale of 0 to 100 where 0 is no effect and 100 is complete control. A dash (-) response means no test result.

CCn1nc(C(C)(C)C)cc1C(=O)Nc1cc(C(=O)NCC2CC2)ccn1 [Compound 155]
Plant response rating, Redstem ([1]; 32 g ai/ha): 0 | Plant response rating, Redstem ([1]; 64 g ai/ha): 0 | Plant response rating, Redstem ([1]; 125 g ai/ha): 0 | Plant response rating, Redstem ([1]; 250 g ai/ha): 95 | Plant response rating, Redstem ([1]; 500 g ai/ha): 95 | Plant response rating, Sedge, Umbrella ([2]; 32 g ai/ha): 30 | Plant response rating, Sedge, Umbrella ([2]; 64 g ai/ha): 65 | Plant response rating, Sedge, Umbrella ([2]; 125 g ai/ha): 75 | Plant response rating, Sedge, Umbrella ([2]; 250 g ai/ha): 75 | Plant response rating, Sedge, Umbrella ([2]; 500 g ai/ha): 80 | Plant response rating, Rice, Transplanted ([3]; 32 g ai/ha): 0 | Plant response rating, Rice, Transplanted ([3]; 64 g ai/ha): 0 | Plant response rating, Rice, Transplanted ([3]; 125 g ai/ha): 20 | Plant response rating, Rice, Transplanted ([3]; 250 g ai/ha): 30 | Plant response rating, Rice, Transplanted ([3]; 500 g ai/ha): 30 | Plant response rating, Rice, Water Seeded ([4]; 32 g ai/ha): 0 | Plant response rating, Rice, Water Seeded ([4]; 64 g ai/ha): 0 | Plant response rating, Rice, Water Seeded ([4]; 125 g ai/ha): 25 | Plant response rating, Rice, Water Seeded ([4]; 250 g ai/ha): 35 | Plant response rating, Rice, Water Seeded ([4]; 500 g ai/ha): 40 | Plant response rating, Sprangletop, Bearded ([5]; 32 g ai/ha): 30 | Plant response rating, Sprangletop, Bearded ([5]; 64 g ai/ha): 30 | Plant response rating, Sprangletop, Bearded ([5]; 125 g ai/ha): 30 | Plant response rating, Sprangletop, Bearded ([5]; 250 g ai/ha): 40 | Plant response rating, Sprangletop, Bearded ([5]; 500 g ai/ha): 75 | Plant response rating, Barnyardgrass ([6]; 32 g ai/ha): 0 | Plant response rating, Barnyardgrass ([6]; 64 g ai/ha): 0 | Plant response rating, Barnyardgrass ([6]; 125 g ai/ha): 20 | Plant response rating, Barnyardgrass ([6]; 250 g ai/ha): 35 | Plant response rating, Barnyardgrass ([6]; 500 g ai/ha): 80 | Plant response rating, Flatsedge, Rice ([7]; 32 g ai/ha): 0 | Plant response rating, Flatsedge, Rice ([7]; 64 g ai/ha): 0 | Plant response rating, Flatsedge, Rice ([7]; 125 g ai/ha): 30 | Plant response rating, Flatsedge, Rice ([7]; 250 g ai/ha): 60 | Plant response rating, Flatsedge, Rice ([7]; 500 g ai/ha): 70 | Plant response rating, Watergrass, Early ([8]; 32 g ai/ha): 0 | Plant response rating, Watergrass, Early ([8]; 64 g ai/ha): 0 | Plant response rating, Watergrass, Early ([8]; 125 g ai/ha): 25 | Plant response rating, Watergrass, Early ([8]; 250 g ai/ha): 35 | Plant response rating, Watergrass, Early ([8]; 500 g ai/ha): 70 | Plant response rating, Ducksalad ([9]; 32 g ai/ha): 0 | Plant response rating, Ducksalad ([9]; 64 g ai/ha): 0 | Plant response rating, Ducksalad ([9]; 125 g ai/ha): 0 | Plant response rating, Ducksalad ([9]; 250 g ai/ha): 60 | Plant response rating, Ducksalad ([9]; 500 g ai/ha): 60

CCN1N=C(C(C)(C)C)CC1C(=O)Nc1cc(C(=O)N(C)C)ccc1F (stereo not shown) [Compound 268, N-[5-[(dimethylamino)carbonyl]-2-fluorophenyl]-3-(1,1-dimethylethyl)-1-ethyl-4,5-dihydro-1H-pyrazole-5-carboxamide]
Plant response rating, Beggarticks, Hairy ([10]; 62 g ai/ha, scale 0 to 100): 40 | Plant response rating, Beggarticks, Hairy ([10]; 125 g ai/ha, scale 0 to 100): 95 | Plant response rating, Beggarticks, Hairy ([10]; 250 g ai/ha, scale 0 (no effect) to 100 (complete control)): 100 | Plant response rating, Beggarticks, Hairy ([10]; 500 g ai/ha, scale 0 (no effect) to 100 (complete control)): 100
